Measured values as given in patent publication US9394544B2, “Ameliorating oxidative stress in neurodegenerative disease via Nox1 targeting” (University of Central Florida Research Foundation, Inc., priority 2013, dated 2016).

Experiments:
Nox1 = Nox1 expression (RT-PCR, immunoblot) in N27 cells exposed to toxins; type: cell-based, rat; settings: N27 cells
Description: The NADPH oxidase is a multi-subunit enzyme that consists of the catalytic subunits (Nox isoforms) together with the regulatory subunits including p22phox, p47phox, p40phox, p67phox, Nox organizer 1 (Noxo1), Nox activator 1 (Noxa1), and small GTPase Rac1. In order to test whether dopaminergic (DA) cells are equipped with the NOX components, N27, a well-established rat DA cell line was examined (Prasad et al. 1994). The mRNAs encoding each Nox isoform and regulatory subunits were detected using RT-PCR. Since transcriptional induction of Nox1 and Nox4 has already been reported in several tissues under a variety of stimuli, transcripts were determined in both nontreated and 6-hydroxydopamine (6-OHDA), a DA neurodegenerative compound, treated DA cells. ROS generation as induced by 6-OHDA (100 μM) and subsequent cell death was observed. All Nox isoforms (Nox1, Nox2, Nox4, Duox1 and Duox2) except Nox3 and Nox5 were detected (FIG. 1A). […] Mitochondria, which have long been considered as a major source of ROS, play a key role in Nox1-mediated superoxide generation (Desouki et al. 2005). […] Cytoplasmic regulatory subunits including p47phox, Noxa1, and Noxo1 were constitutively expressed in DA cells as well (FIG. 1A). Noxa1 and Noxo1 are homologues of p67phox and p47phox, respectively. They are involved in Nox1-mediated superoxide generation (Banfi et al. 2003, Geiszt et al. 2003). […] The activation of a small GTPase Rac1 is indispensable for Nox1 and Nox2 activation (Bokoch 2002). GTP-bound active Rac1 was measured in DA cells treated with 6-OHDA for various duration from 1 h to 6 h.
Total RNA was extracted from N27 cells using Trizol reagent (Invitrogen, Carlsbad, Calif.). Reverse transcription was performed for 1 h at 42° C. with 1 μg of total RNA using 20 unit/μl of AMV reverse transcriptase (Roche Applied Science, Indianapolis, Ind.), and oligo-p(dT)15 as a primer. The samples were then heated at 99° C. for 5 min to terminate the reaction. The cDNA obtained from 1 μg total RNA was used as a template for PCR amplification. Oligonucleotide primers were designed based on Genebank entries for rat NOX1 (sense, 5′-[…]-3′ SEQ ID NO. 1; antisense, 5′-[…]-3′ SEQ ID NO. 2), rat NOX2 (sense, 5′-[…]-3′ SEQ ID NO. 3; antisense, 5′-[…]-3′ SEQ ID NO. 4), rat NOX4 (sense, 5′-[…]-3′ SEQ ID NO. 5; antisense, 5′-[…]-3′ SEQ ID NO. 6), rat NOXA1 (sense, 5′-[…]-3′ SEQ ID NO. 7; antisense, 5′-[…]-3′ SEQ ID NO. 8), rat NOXO1 (sense, 5′-[…]-3′ SEQ ID NO. 9; antisense, 5′-[…]-3′ SEQ ID NO. 10), rat p47 (sense, 5′-[…]-3′ SEQ ID NO 11; antisense, 5′-[…]-3′ SEQ ID NO. 12), rat Duox1 (sense, 5′-[…]-3′ SEQ ID NO. 13; antisense, 5′-[…]-3′SEQ ID NO. 14), rat Duox2 (sense, 5′-[…]-3′ SEQ ID NO. 15; antisense, 5′-[…]-3′ SEQ ID NO. 16) and rat GAPDH (sense, 5′-[…]-3′ SEQ ID NO. 17; antisense, 5′-[…]-3′ SEQ ID NO. 18). PCR mixes contained 10 μl of 2×PCR buffer, 1.25 mM of each dNTP, 10 pmol of each forward and reverse primer, and 2.5 units of Taq polymerase in the final volume of 20 μl. Amplification was performed in 35 cycles at 60° C., 30 sec; 72° C., 1 min; 94° C., 30 sec. After the last cycle, all samples were incubated for an additional 10 min at 72° C. for final extension step. PCR fragments were analyzed on 1.2% agarose gel in 0.5×TAE containing ethidium bromide. Amplification of GAPDH, a relatively invariant internal reference RNA, was performed in parallel, and cDNA amounts were normalized against GAPDH mRNA levels. The primer set specifically recognized only the gene of interest as indicated by amplification of a single band of expected size. […]

[1] = test system: Flag-tagged wild-type (WT) α-synuclein; assay: Aggregation of overexpressed flag-tagged WT α-synuclein in N27 cells exposed to PQ; type: cell-based, rat
Method: Human α-synuclein was cloned into the p3xFLAG-myc-CMV-23 expression vector (Sigma) for N- and C-terminal tagging with FLAG and Myc, respectively. For transient overexpression of tagged α-synuclein, N27 cells were plated onto 24-well plates with coverslips at 0.5×10^5 cells per well 1 d before transfection. The next day, cells were transiently transfected with FLAG-WTsyn-myc. Briefly, 1 μg of plasmid DNA was mixed with 6 μl of Lipofectamine 2000 (Invitrogen) in 100 μl of Opti-MEM for 20 min before addition in the culture. After 6 h of incubation, the culture medium was changed and 100 μl of Nox1 shRNA/LVX viral particle was added to each well. Cells were maintained for an additional 36 h before treatment with 800 μM or 1000 μM PQ for 8 and 24 h.
After each respective treatment, cells were fixed in 4% paraformaldehyde (PFA) for 20 min and permeabilized with 0.1% Triton X-100 in PBS for 10 min. Blocking was performed by incubation with 20% goat or donkey serum in PBS containing 0.1% Tween 20 for 90 min at room temperature. […] For quantification of Flag^+ and α-synuclein^+ cells, >30 different fields per coverslip were analyzed on a Nikon inverted fluorescent microscope under a 20× and 40× magnification.

| Compound | Nox1 mRNA (RT-PCR) (Nox1; 100 μM, 6 h) | Nox1 expression (immunoblot) (Nox1; 24 h) | increase of flag-tagged WT α-synuclein aggregation vs control cells [1] |
| --- | --- | --- | --- |
| NCCc1cc(O)c(O)cc1O [6-OHDA, 6-hydroxydopamine] | robustly induced | induced Nox1 expression in a dose-dependent manner |  |
| C[n+]1ccc(-c2cc[n+](C)cc2)cc1 [PQ, paraquat] |  |  | 2.5 fold |
